melting point	SMILES
215 to 217 °C	Cc1ccc2c(C(=O)Nc3nccs3)cn(C(C)C)c2c1
202 to 204 °C	CC(C)n1cc(C(=O)Nc2nccs2)c2ccc(Cl)cc21
234 to 236 °C	CCn1cc(C(=O)Nc2nccs2)c2ccc(Cl)cc21
175 to 176 °C	CCCn1cc(C(=O)Nc2nccs2)c2ccc(Cl)cc21
200 to 202 °C	CC(C)Cn1cc(C(=O)Nc2nccs2)c2ccc(Cl)cc21
179 to 180 °C	CC(C)CCn1cc(C(=O)Nc2nccs2)c2ccc(Cl)cc21
246 to 247 °C	CC(C)n1cc(C(=O)Nc2nccs2)c2ccc(C(F)(F)F)cc21
274 to 275 °C	CC(C)n1cc(C(=O)Nc2nncs2)c2ccc(Cl)cc21
216 to 219 °C	Cc1cnc(NC(=O)c2cn(C(C)C)c3cc(Cl)ccc23)s1
201 to 203 °C	Cc1csc(NC(=O)c2cn(C(C)C)c3cc(Cl)ccc23)n1
252 to 253 °C	CC(C)n1cc(C(=O)Nc2ncc(Cl)s2)c2ccc(Cl)cc21
240 to 242 °C	CC(C)n1cc(C(=O)Nc2ncc(Br)s2)c2ccc(Cl)cc21
236 to 239 °C	CC(C)n1cc(C(=O)Nc2nccs2)c2ccc([N+](=O)[O-])cc21
239 to 241 °C	CC(C)n1cc(C(=O)Nc2nccs2)c2ccc(O)cc21
182 to 185 °C	COc1ccc2c(C(=O)Nc3nccs3)cn(C(C)C)c2c1
172 to 176 °C	CSc1ccc2c(C(=O)Nc3nccs3)cn(C(C)C)c2c1
247 to 249 °C	CC(C)n1cc(C(=O)Nc2nccs2)c2ccc(S(C)(=O)=O)cc21
203 to 204 °C	CC(C)n1cc(C(=O)Nc2nccs2)c2ccc(F)cc21
205 to 207 °C	CC(C)n1cc(C(=O)Nc2nccs2)c2ccc(Br)cc21

Further lines, the compound ahead of its results:

SMILES	melting point
CCCCn1cc(C(=O)Nc2nccs2)c2ccc(Cl)cc21	168 to 169 °C
CCCCCn1cc(C(=O)Nc2nccs2)c2ccc(Cl)cc21	139 to 141 °C
O=C(Nc1nccs1)c1cn(CC2CC2)c2cc(Cl)ccc12	185 to 187 °C
O=C(Nc1nccs1)c1cn(CC2CCC2)c2cc(Cl)ccc12	169 to 173 °C
O=C(Nc1nccs1)c1cn(CC2CCCC2)c2cc(Cl)ccc12	117 to 119 °C
O=C(Nc1nccs1)c1cn(CC2CCCCC2)c2cc(Cl)ccc12	181 to 183 °C
CCOC(=O)Cc1csc(NC(=O)c2cn(C(C)C)c3cc(Cl)ccc23)n1	65 to 75 °C
CC(C)n1cc(C(=O)Nc2ccccn2)c2ccc(Cl)cc21	149 to 150 °C
Cc1ccc(NC(=O)c2cn(C(C)C)c3cc(Cl)ccc23)nc1	132 to 134 °C
CC(C)n1cc(C(=O)Nc2ccc(C(F)(F)F)cn2)c2ccc(Cl)cc21	179 to 181 °C
CC(C)n1cc(C(=O)Nc2ccc(Cl)cn2)c2ccc(Cl)cc21	131 to 134 °C
CC(C)n1cc(C(=O)Nc2ccc(Br)cn2)c2ccc(Cl)cc21	57 to 64 °C

Reference: patent US6881844B2, “Indole-3-carboxamides as glucokinase activators” (Hoffman-La Roche Inc., priority 2002, dated 2005)
